≈ marks a conversion by molar mass, not a printed value.
Tests used:
[1] = anti-tumor activity compared with streptonigrin; conditions: comparison with streptonigrin, no data given
[2] = cytotoxicity compared with streptonigrin; conditions: comparison with streptonigrin, no data given
[3] = system: cultured mouse leukemia cell P388; assay: inhibition of growth of cultured cells; type: cell-based; conditions: read-out: median inhibition dose, ID50
Experimental: The anti-tumor activity of substance MG883-12F2 can be confirmed by measuring its ability to inhibit the growth of known cultured cells. For example, the median inhibition dose, ID50, of substance MG883-12F2 against cultured mouse leukemia cell P388 was 0.5 mg/ml.

In the case of COc1ccc(-c2c(C)c(C(=O)O)nc(-c3ccc4c(n3)C(=O)C(N)=C(O)C4=O)c2N)c(O)c1OC [substance MG883-12F2], the anti-tumor activity [1] is reported as “slightly inferior to streptonigrin”, the cytotoxicity [2] is reported as “lower cytotoxicity” and the IC50 [3] is reported as 500 µg/mL (≈ 1020 µM).

Source: patent publication EP0185979A1, “A novel substance having anti-tumor activity, a microbiological process for the preparation thereof and its use as a medicament” (MICROBIAL CHEMISTRY RESEARCH FOUNDATION, priority 1984, dated 1986)
